Assays:
Assay in all cases: relative viability (nuclei count vs DMSO), 5 days (fraction); higher = more cells survive
[1] = compound: C1CNCCC1C2=CC(=NN2)C3=CC=NC=C3 + CS(=O)(=O)CCNCc1ccc(-c2ccc3ncnc(Nc4ccc(OCc5cccc(F)c5)c(Cl)c4)c3c2)o1 [Lapatinib] (partner 2 µM)
Method in brief: (§1)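 Values are medians from duplicate plates. Each reflects relative viability, defined as the nuclei count of treated wells over that of vehicle wells. Lung cancer cell lines in 1536-well plates were pin-tool dosed one day after seeding with one drug alone or with a fixed anchor-drug dose plus five library-drug doses (not always all listed) in √10 steps, then fixed, stained and imaged at 4× after 5 days.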

[2] = compound: C1CNCCC1C2=CC(=NN2)C3=CC=NC=C3 + CC(=O)c1c(C)c2cnc(Nc3ccc(N4CCNCC4)cn3)nc2n(C2CCCC2)c1=O [Palbociclib] (partner 0.5 µM)
Method in brief: as §1

[3] = compound: C1CNCCC1C2=CC(=NN2)C3=CC=NC=C3 + Nc1ncn([C@H]2C[C@H](O)[C@@H](CO)O2)c(=O)n1 [Decitabine] (partner 2 µM)
Method in brief: as §1

Tanzisertib + OSI-027 = compound: O[C@H]1CC[C@H](Nc2ncc3nc(Nc4c(F)cc(F)cc4F)n([C@H]4CCOC4)c3n2)CC1 [Tanzisertib] + COc1cccc2cc(-c3nc([C@H]4CC[C@H](C(=O)O)CC4)n4ncnc(N)c34)[nH]c12 [OSI-027] (partner 0.5 µM)
Method in brief: as §1

UMC-11
relative viability ([1]; first compound 0.08 µM): 0.73 | relative viability ([1]; first compound 0.8 µM): 1.23 | relative viability ([1]; first compound 2.53 µM): 1.05 | relative viability ([1]; first compound 8 µM): 1.04 | relative viability ([2]; first compound 0.08 µM): 0.317 | relative viability ([2]; first compound 0.8 µM): 0.343 | relative viability ([2]; first compound 2.53 µM): 0.325 | relative viability ([2]; first compound 8 µM): 0.333 | relative viability ([3]; first compound 0.08 µM): 0.4 | relative viability ([3]; first compound 0.8 µM): 0.629 | relative viability ([3]; first compound 2.53 µM): 0.697 | relative viability ([3]; first compound 8 µM): 0.808 | relative viability (Tanzisertib + OSI-027; first compound 0.08 µM): 0.532 | relative viability (Tanzisertib + OSI-027; first compound 0.253 µM): 0.391 | relative viability (Tanzisertib + OSI-027; first compound 0.8 µM): 0.537 | relative viability (Tanzisertib + OSI-027; first compound 2.53 µM): 0.439 | relative viability (Tanzisertib + OSI-027; first compound 8 µM): 0.477

From the supplement of paper PMC10307832
